Consider 13 molecules from PubChem BioAssay AID200 (DTP/NCI, 2004).

The test system of the experiment is B6C3F1 mice, B16 melanoma ip, median survival T/C. As to the kind of experiment: NCI In Vivo Anticancer Drug Screen. Data for tumor model B16 Melanoma (intraperitoneal) in B6C3F1 mice. The settings on record: endpoint: median survival time, higher = longer survival. The gist of the method:
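Transplantable tumor in mice; treated vs vehicle control groups; survival or tumor size measured; value = T/C ratio.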

The mark [1] stands for this setting: dose: 25.0 mg/kg/injection, schedule: Q01DX009 (ip), vehicle: saline with Tween-80.
The mark [2] stands for this setting: dose: 50.0 mg/kg/injection, schedule: Q01DX009 (ip), vehicle: saline with Tween-80.
Where [3] appears, read: dose: 12.5 mg/kg/injection, schedule: Q01DX009 (ip), vehicle: saline with Tween-80.
Setting [4] is: dose: 100.0 mg/kg/injection, schedule: Q01DX009 (ip), vehicle: saline with Tween-80.
[5] abbreviates: dose: 200.0 mg/kg/injection, schedule: Q01DX009 (ip), vehicle: saline with Tween-80.
Setting [6] is: dose: 100.0 mg/kg/injection, schedule: Q01DX009 (ip), vehicle: Klucel (hydroxypropylcellulose) (HPC).
[7] abbreviates: dose: 200.0 mg/kg/injection, schedule: Q01DX009 (ip), vehicle: Klucel (hydroxypropylcellulose) (HPC).

Molecules are shown by their SMILES. Several values for one entry are separate records, joined by “and”; a condition that tells them apart may be missing. Identical values can stand only once. Toxic doses and inconclusive results are not listed. Where a SMILES comes first, the peptide text is derived from it. The star is where a group is joined. Boc = CC(C)(C)OC(=O)*

As to `Nc1nc(-c2cccc([N+](=O)[O-])c2)c(Br)c(=O)[nH]1`, the T/C runs as follows: under setting [1], 115 % of control; under setting [2], 122 % of control.
As to `C/C=C/c1cc2c(c(=O)o1)C(=O)[C@@H](O)[C@H](C)O2`, the T/C (dose: 6.25 mg/kg/injection, schedule: Q01DX009 (ip), vehicle: saline with Tween-80) was 98 % of control; the T/C under setting [3] was 103 % of control; the T/C under setting [1] was 100 % of control; the T/C under setting [2] was 118 % of control; the T/C under setting [4] is 109 % of control; the T/C under setting [5] was 103 % of control.
Regarding `CC(NC(=O)OCc1ccccc1)C(=O)NC(C(=O)O)C(C)O` (stereo unspecified), the T/C under setting [6] is 98 % of control and the T/C under setting [7] was 106 % of control.
Consider `Nc1n[n+](-c2ccccc2)no1`, for which the T/C runs as follows: (dose: 3.12 mg/kg/injection, schedule: Q01DX009 (ip), vehicle: water) 98 % of control; (dose: 6.25 mg/kg/injection, schedule: Q01DX009 (ip), vehicle: water) 107 % of control; (dose: 12.5 mg/kg/injection, schedule: Q01DX009 (ip), vehicle: water) 118 % of control.
Turning to `CC(=O)OCC12C3CC(=O)OC1C(OC(=O)C=C(C)C)C1C(C)=CC(=O)C(OC(C)=O)C1(C)C2C(=O)C(OC(C)=O)C3C` (stereo unspecified), the T/C reads like this: (dose: 0.5 mg/kg/injection, schedule: Q01DX009 (ip), vehicle: distilled water + Tween-80) 93 % of control; (dose: 1.0 mg/kg/injection, schedule: Q01DX009 (ip), vehicle: distilled water + Tween-80) 101 % of control; (dose: 2.0 mg/kg/injection, schedule: Q01DX009 (ip), vehicle: distilled water + Tween-80) 118 % of control; (dose: 4.0 mg/kg/injection, schedule: Q01DX009 (ip), vehicle: distilled water + Tween-80) 93 % of control; (dose: 8.0 mg/kg/injection, schedule: Q01DX009 (ip), vehicle: distilled water + Tween-80) 98 % of control.
Turning to `C=CCSc1ncnc2c1ncn2C1OC(CO)C(O)C1O` (stereo unspecified), the T/C was 102 % of control (dose: 37.5 mg/kg/injection, schedule: Q01DX009 (ip), vehicle: saline with Tween-80); 90 % of control (dose: 75.0 mg/kg/injection, schedule: Q01DX009 (ip), vehicle: saline with Tween-80); 97 % of control (dose: 150.0 mg/kg/injection, schedule: Q01DX009 (ip), vehicle: saline with Tween-80).
As to `O=c1cc(-c2ccccc2)nc(N[N+](=O)[O-])[nH]1`, the T/C by setting is: (dose: 11.0 mg/kg/injection, schedule: Q01DX009 (ip), vehicle: Klucel (hydroxypropylcellulose) (HPC)) 91 % of control; (dose: 22.0 mg/kg/injection, schedule: Q01DX009 (ip), vehicle: Klucel (hydroxypropylcellulose) (HPC)) 100 % of control; (dose: 44.0 mg/kg/injection, schedule: Q01DX009 (ip), vehicle: Klucel (hydroxypropylcellulose) (HPC)) 105 % of control; (dose: 88.0 mg/kg/injection, schedule: Q01DX009 (ip), vehicle: Klucel (hydroxypropylcellulose) (HPC)) 88 % of control.
In the case of `CC(=O)O[C@H]1C(=O)[C@@]2(C)[C@H]([C@H](OC(=O)c3ccccc3)[C@]3(O)C[C@H](OC(=O)[C@H](O)[C@@H](NC(=O)c4ccccc4)c4ccccc4)C(C)=C1C3(C)C)[C@]1(OC(C)=O)CO[C@@H]1C[C@@H]2O`, the T/C (dose: 1.25 mg/kg/injection, schedule: Q01DX008 (ip), vehicle: Klucel (hydroxypropylcellulose) (HPC)) was 187 % of control; the T/C (dose: 1.25 mg/kg/injection, schedule: Q01DX009 (ip), vehicle: Klucel (hydroxypropylcellulose) (HPC)) is 155 % of control and 171 % of control; the T/C (dose: 1.88 mg/kg/injection, schedule: Q01DX009 (ip), vehicle: Klucel (hydroxypropylcellulose) (HPC)) is 213 % of control; the T/C (dose: 2.5 mg/kg/injection, schedule: Q01DX008 (ip), vehicle: Klucel (hydroxypropylcellulose) (HPC)) was 221 % of control; the T/C (dose: 3.75 mg/kg/injection, schedule: Q01DX009 (ip), vehicle: Klucel (hydroxypropylcellulose) (HPC)) is 225 % of control; the T/C (dose: 5.0 mg/kg/injection, schedule: Q01DX008 (ip), vehicle: Klucel (hydroxypropylcellulose) (HPC)) was 232 % of control. Also, the T/C runs as follows: (dose: 6.25 mg/kg/injection, schedule: Q04DX003 (ip), vehicle: Klucel (hydroxypropylcellulose) (HPC)) 174 % of control and 186 % of control; (dose: 7.5 mg/kg/injection, schedule: Q01DX009 (ip), vehicle: Klucel (hydroxypropylcellulose) (HPC)) 327 % of control; (dose: 10.0 mg/kg/injection, schedule: Q01DX008 (ip), vehicle: Klucel (hydroxypropylcellulose) (HPC)) 112 % of control; (dose: 10.0 mg/kg/injection, schedule: Q01DX009 (ip), vehicle: other) 154 % of control and 175 % of control; (dose: 12.5 mg/kg/injection, schedule: Q04DX003 (ip), vehicle: Klucel (hydroxypropylcellulose) (HPC)) 201 % of control and 231 % of control; (dose: 20.0 mg/kg/injection, schedule: Q01DX008 (ip), vehicle: Klucel (hydroxypropylcellulose) (HPC)) 92 % of control. The T/C is, setting by setting: (dose: 25.0 mg/kg/injection, schedule: Q04DX003 (ip), vehicle: Klucel (hydroxypropylcellulose) (HPC)) 237 % of control and 254 % of control; (dose: 30.0 mg/kg/injection, schedule: Q01DX009 (ip), vehicle: Klucel (hydroxypropylcellulose) (HPC)) 89 % of control; (dose: 50.0 mg/kg/injection, schedule: Q04DX003 (ip), vehicle: Klucel (hydroxypropylcellulose) (HPC)) 169 % of control and 222 % of control; (dose: 100.0 mg/kg/injection, schedule: Q04DX003 (ip), vehicle: Klucel (hydroxypropylcellulose) (HPC)) 118 % of control.
Consider `CN(C)CCNc1ccc(CO)c2sc3ccc(O)cc3c(=O)c12`, for which the T/C (dose: 18.0 mg/kg/injection, schedule: Q01DX009 (ip), vehicle: saline with Tween-80) is 327 % of control; the T/C (dose: 30.0 mg/kg/injection, schedule: Q01DX009 (ip), vehicle: saline with Tween-80) was 218 % of control; the T/C under setting [2] was 295 % of control; the T/C (dose: 83.33 mg/kg/injection, schedule: Q01DX009 (ip), vehicle: saline with Tween-80) is 327 % of control.
Regarding `C=CC1(C)CCC2C(=CCC3C2(C)CC(O)C(O)C3(C)COC2OC(CO)C(O)C(O)C2O)C1` (stereo unspecified), the T/C runs as follows: (dose: 1.5 mg/kg/injection, schedule: Q01DX009 (ip), vehicle: Klucel (hydroxypropylcellulose) (HPC)) 116 % of control; (dose: 3.0 mg/kg/injection, schedule: Q01DX009 (ip), vehicle: Klucel (hydroxypropylcellulose) (HPC)) 103 % of control; (dose: 6.0 mg/kg/injection, schedule: Q01DX009 (ip), vehicle: Klucel (hydroxypropylcellulose) (HPC)) 113 % of control; (dose: 12.0 mg/kg/injection, schedule: Q01DX009 (ip), vehicle: Klucel (hydroxypropylcellulose) (HPC)) 107 % of control; (dose: 24.0 mg/kg/injection, schedule: Q01DX009 (ip), vehicle: Klucel (hydroxypropylcellulose) (HPC)) 108 % of control.
Regarding `CN(C)P(=O)(Oc1ccccc1)N(C)C`, the T/C is, setting by setting: under setting [3], 114 % of control and 98 % of control; under setting [1], 100 % of control and 101 % of control; under setting [2], 98 % of control and 99 % of control; under setting [4], 110 % of control and 99 % of control; under setting [5], 101 % of control and 103 % of control.
As to `CSCCC(NC(=O)C(CC(C)C)NC(=O)OC(C)(C)C)C(N)=O` (stereo not drawn) (Boc-Leu-Met-NH2; configuration not given here), the T/C is 86 % of control (dose: 50.0 mg/kg/injection, schedule: Q01DX009 (ip), vehicle: Klucel (hydroxypropylcellulose) (HPC)); 98 % of control and 102 % of control under setting [6]; 97 % of control and 100 % of control under setting [7]; 101 % of control (dose: 400.0 mg/kg/injection, schedule: Q01DX009 (ip), vehicle: Klucel (hydroxypropylcellulose) (HPC)).
In the case of `CC(C)NC(=O)OCc1c(COC(=O)NC(C)C)c(-c2ccc(Cl)c(Cl)c2)n2c1C[C@@H](O)C2`, the T/C is 160 % of control (dose: 5.0 mg/kg/injection, schedule: Q01DX009 (ip), vehicle: water); 196 % of control (dose: 10.0 mg/kg/injection, schedule: Q01DX009 (ip), vehicle: water); 196 % of control (dose: 20.0 mg/kg/injection, schedule: Q01DX009 (ip), vehicle: Klucel (hydroxypropylcellulose) (HPC)); 289 % of control (dose: 20.0 mg/kg/injection, schedule: Q01DX009 (ip), vehicle: water); 223 % of control (dose: 40.0 mg/kg/injection, schedule: Q01DX009 (ip), vehicle: Klucel (hydroxypropylcellulose) (HPC)); 191 % of control (dose: 40.0 mg/kg/injection, schedule: Q01DX009 (ip), vehicle: water). For the same molecule, under “dose: 80.0 mg/kg/injection, schedule: Q01DX009 (ip), vehicle: Klucel (hydroxypropylcellulose) (HPC)”, the T/C is 101 % of control.
